Experimental data: patent EP0430037A2, “Process for producing 2-carbon-substituted carbapenem derivatives” (BANYU PHARMACEUTICAL CO., LTD., priority 1989, dated 1991)

Experiments:
[1] = Concentration in blood and recovery rate in urine after oral administration (bioassay); assay type: in vivo, ddY male mice; conditions: mouse, 40 mg/kg orally, mice, bioassay with S. lutea PC 11001, Example 26 quantified as its non-ester form (Example 25); for concentration at 0.25 h: read-out: Concentration in blood 0.25 hr later; for concentration at 0.5 h: read-out: Concentration in blood 0.5 hr later
Procedure: (3) Concentration in blood and recovery rate in urine
ddY male mice of 4 weeks old
40 mg/kg of the test compound was orally administered to each mouse, and the change with time of the concentration in blood and the recovery rate in urine for from 0 to 6 hours were measured. The quantitative analysis was conducted by a bioassay using S. lutea PC 11001 as the test microorganism. With respect to the compound of Example 26, the quantitative analysis was conducted in the form of its non-ester form i.e. as the compound of Example 25.

[2] = tested on: S. aureus 209P NIHJ JC1; assay: Antibacterial activities in vitro (agar plate dilution method); assay type: cell-based; conditions: Staphylococcus aureus; Mueller Hinton agar, inoculum size 10⁶ CFU/mℓ, 37°C for 16 hours
Procedure: (1) Antibacterial activities in vitro The antibacterial activities were measured by the following agar plate dilution method. One platinum loopful of each test microorganism incubated overnight in Mueller Hinton broth, was inoculated to Mueller Hinton agar (inoculum size: 10⁶ CFU/mℓ). Such a culture medium contained a test compound in a predetermined concentration.

[3] = tested on: S. aureus 4970; assay: Protective effects against experimental infectious disease of mice; assay type: in vivo, Male mice (ddY); conditions: Staphylococcus aureus, 4970, 96 h; oral administration one hour after inoculation of 5 x 10⁵ cells in 5% mucin; mortality four days later; eight mice per group; read-out: ED₅₀
Procedure: (2) Protective effects against experimental infectious disease of mice
Male mice (ddY) of 4 weeks old having body weights of 20±1 g were employed, and the test was conducted with eight mice per group. Microorganism used: S. aureus 4970
5 x 10⁵ cells of the pathogenic microorganism suspended in 5% mucin were […] injected to each mouse. One hour after the inoculation of the microorganism, the compound of the present invention was orally administered in the form of solutions having various concentrations. Four days later, the mortality of the mice was determined, and the ED₅₀ value was calculated.

## C=C(C)C1=C(C(=O)O)N2C(=O)[C@H]([C@@H](C)O)[C@H]2[C@H]1C [Example 25, Sodium (1S,5R,6S)-6-((1R)-1-hydroxyethyl)-2-(1-methylvinyl)-1-methylcarbapen-2-em-3-carboxylate]
[1]; blood
  concentration at 0.25 h: 4100 ng/mL
  concentration at 0.5 h: 2900 ng/mL
[1]; blood, read-out: Concentration in blood 1 hr later
  concentration at 1 h: 1600 ng/mL
[1]; urine, 0-6 hrs
  dose excreted at 6 h: 1.8%
[2]
  MIC: 0.05 µg/mL
[3]
  ED50: 0.34 mg/kg

## C=C(C)C1=C(C(=O)OCOC(=O)C(C)(C)C)N2C(=O)[C@H]([C@@H](C)O)[C@H]2[C@H]1C [Example 26, Pivaloyloxymethyl (1S,5R,6S)-6-((1R)-1-hydroxyethyl)-2-(1-methylvinyl)-1-methylcarbapen-2-em-3-carboxylate]
[1]; blood
  concentration at 0.25 h: 44900 ng/mL
  concentration at 0.5 h: 29100 ng/mL
[3]
  ED50: 0.36 mg/kg
